US10308659B2, “Pyridine derivatives” (Hoffmann-La Roche Inc., priority 2013, dated 2019)

Legend:
[1] = target: human CB2 receptors (Homo sapiens (Human), UniProt P34972); experiment: cAMP assay, CHO cells expressing human CB2 receptors; format: cell-based; conditions: functional cAMP assay, CHO cells expressing human CB2; read-out: EC50 CB2 human
Outline: (§1)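 Transfected CHO cells were preincubated in Krebs Ringer bicarbonate buffer with 1 mM IBMX for 30 min at 30 °C, then exposed to compound for 30 min at 30 °C. cAMP was measured by time-resolved FRET (730/645 nm) against a standard curve spanning 10 μM to 0.13 nM. EC50 values derived from concentration–response data.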

[2] = target: human CB1 receptors (Homo sapiens (Human), UniProt P21554); experiment: cAMP assay, CHO cells expressing human CB1 receptors; format: cell-based; conditions: functional cAMP assay, CHO cells expressing human CB1; read-out: EC50 CB1 human
Outline: as §1

Chain of human CB1 receptors (P21554 whole entry): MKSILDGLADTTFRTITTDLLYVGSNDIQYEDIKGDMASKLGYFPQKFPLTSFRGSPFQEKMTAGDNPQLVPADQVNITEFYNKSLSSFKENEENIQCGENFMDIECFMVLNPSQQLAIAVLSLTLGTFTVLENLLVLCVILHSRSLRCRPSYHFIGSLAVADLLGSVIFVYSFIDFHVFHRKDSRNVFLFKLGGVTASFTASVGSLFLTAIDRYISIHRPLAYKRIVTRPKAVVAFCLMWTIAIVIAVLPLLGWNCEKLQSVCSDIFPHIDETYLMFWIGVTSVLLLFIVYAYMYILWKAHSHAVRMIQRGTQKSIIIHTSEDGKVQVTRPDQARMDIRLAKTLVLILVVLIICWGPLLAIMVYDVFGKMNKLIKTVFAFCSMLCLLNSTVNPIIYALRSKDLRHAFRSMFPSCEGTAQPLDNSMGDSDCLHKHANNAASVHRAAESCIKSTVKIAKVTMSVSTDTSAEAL
Chain of human CB2 receptors (P34972 whole entry): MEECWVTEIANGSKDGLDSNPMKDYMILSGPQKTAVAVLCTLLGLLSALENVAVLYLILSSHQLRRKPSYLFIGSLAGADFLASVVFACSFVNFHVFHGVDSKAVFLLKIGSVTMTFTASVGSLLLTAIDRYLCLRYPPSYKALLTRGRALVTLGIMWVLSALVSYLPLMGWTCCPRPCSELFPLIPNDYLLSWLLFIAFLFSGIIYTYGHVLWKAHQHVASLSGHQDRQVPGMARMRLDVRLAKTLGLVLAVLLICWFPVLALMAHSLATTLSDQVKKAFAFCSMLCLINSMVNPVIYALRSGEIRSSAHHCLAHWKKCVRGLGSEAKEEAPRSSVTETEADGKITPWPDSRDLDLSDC

| SMILES | EC50 [1] [nM] | EC50 [2] [nM] |
| --- | --- | --- |
| FC(F)(F)COc1cc(-c2noc(C3CC3)n2)ncc1C1CC1 [Example 72, 5-cyclopropyl-3-[5-cyclopropyl-4-(2,2,2-trifluoroethoxy)pyridin-2-yl]-1,2,4-oxadiazole] | 45.4 | > 10000 |
| CC(C)(C)c1nc(-c2cc(N3CCC(O)C3)c(C3CC3)cn2)no1 (stereo not drawn) [Example 73, 1-[2-(5-tert-butyl-1,2,4-oxadiazol-3-yl)-5-cyclopropylpyridin-4-yl]pyrrolidin-3-ol] | 57.2 | > 10000 |
| CC(C)(C)c1nc(-c2cc(N3CC(F)(F)C(F)(F)C3)c(C3CC3)cn2)no1 [Example 74, 5-tert-butyl-3-[5-cyclopropyl-4-(3,3,4,4-tetrafluoropyrrolidin-1-yl)pyridin-2-yl]-1,2,4-oxadiazole] | 4.7 | > 10000 |
| CC(C)(C)c1nc(-c2cc(Oc3ccc(S(C)(=O)=O)cc3)c(C3CC3)cn2)no1 [Example 75, 5-tert-butyl-3-[5-cyclopropyl-4-(4-methylsulfonylphenoxy)pyridin-2-yl]-1,2,4-oxadiazole] | 288 | > 10000 |
| CC(C)(C)c1nc(-c2cc(N3CCC(F)(F)C3)c(C3CC3)cn2)no1 [Example 77, 5-tert-butyl-3-[5-cyclopropyl-4-(3,3-difluoropyrrolidin-1-yl)pyridin-2-yl]-1,2,4-oxadiazole] | 2.1 | > 10000 |
| CC(C)(C)c1nc(-c2cc(N3CCOCC3)c(C3CC3)cn2)no1 [Example 78, 4-[2-(5-tert-butyl-1,2,4-oxadiazol-3-yl)-5-cyclopropylpyridin-4-yl]morpholine] | 42.2 | > 10000 |
| CC(C)(C)c1nc(-c2cc(N3CCCC3)c(C3CC3)cn2)no1 [Example 79, 5-tert-butyl-3-(5-cyclopropyl-4-pyrrolidin-1-ylpyridin-2-yl)-1,2,4-oxadiazole] | 9 | > 10000 |
| CC(C)(C)c1nc(-c2cc(S(=O)(=O)C3CC3)c(C3CC3)cn2)no1 [Example 80, 5-tert-butyl-3-(5-cyclopropyl-4-cyclopropylsulfonylpyridin-2-yl)-1,2,4-oxadiazole] | 47.5 | > 10000 |
| COC1CN(c2cc(-c3noc(C(C)(C)C)n3)ncc2C2CC2)C1 [Example 81, 5-tert-butyl-3-[5-cyclopropyl-4-(3-methoxyazetidin-1-yl)pyridin-2-yl]-1,2,4-oxadiazole] | 21.1 | > 10000 |
| CC(C)(C)c1nc(-c2cc(N3CC4(COC4)C3)c(C3CC3)cn2)no1 [Example 82, 6-[2-(5-tert-butyl-1,2,4-oxadiazol-3-yl)-5-cyclopropylpyridin-4-yl]-2-oxa-6-azaspiro[3.3]heptane] | 37.9 | > 10000 |
| CCOCCOc1cc(-c2noc(C(C)(C)C)n2)ncc1C1CC1 [Example 83, 5-tert-butyl-3-[5-cyclopropyl-4-(2-ethoxyethoxy)pyridin-2-yl]-1,2,4-oxadiazole] | 30.1 | > 10000 |
| CCC(COC)Oc1cc(-c2noc(C(C)(C)C)n2)ncc1C1CC1 (stereo not drawn) [Example 84, 5-tert-butyl-3-[5-cyclopropyl-4-(1-methoxybutan-2-yloxy)pyridin-2-yl]-1,2,4-oxadiazole] | 50.1 | > 10000 |
| COCC(C)Oc1cc(-c2noc(C(C)(C)C)n2)ncc1C1CC1 (stereo not drawn) [Example 87, 5-tert-butyl-3-[5-cyclopropyl-4-(1-methoxypropan-2-yloxy)pyridin-2-yl]-1,2,4-oxadiazole] | 113 | > 10000 |
| CC(C)(C)c1nc(-c2cc(OC3CCCOC3)c(C3CC3)cn2)no1 (stereo not drawn) [Example 88, 5-tert-butyl-3-[5-cyclopropyl-4-(oxan-3-yloxy)pyridin-2-yl]-1,2,4-oxadiazole] | 52.9 | > 10000 |
| COC(C)CCOc1cc(-c2noc(C(C)(C)C)n2)ncc1C1CC1 (stereo not drawn) [Example 89, 5-tert-butyl-3-[5-cyclopropyl-4-(3-methoxybutoxy)pyridin-2-yl]-1,2,4-oxadiazole] | 16.2 | > 10000 |
| CC(C)(C)c1nc(-c2cc(OCC3COC3)c(C3CC3)cn2)no1 [Example 90, 5-tert-butyl-3-[5-cyclopropyl-4-(oxetan-3-ylmethoxy)pyridin-2-yl]-1,2,4-oxadiazole] | 11.8 | > 10000 |
| C[C@H](Oc1cc(-c2noc(C3CC3)n2)ncc1C1CC1)C(F)(F)F [Example 91, 5-cyclopropyl-3-[5-cyclopropyl-4-[(2S)-1,1,1-trifluoropropan-2-yl]oxypyridin-2-yl]-1,2,4-oxadiazole] | 641 | > 10000 |
| CCN1CCC(Oc2cc(-c3noc(C(C)(C)C)n3)ncc2C2CC2)C1 (stereo not drawn) [Example 92, 5-tert-butyl-3-[5-cyclopropyl-4-(1-ethylpyrrolidin-3-yl)oxypyridin-2-yl]-1,2,4-oxadiazole] | 75.1 | 768 |

| SMILES | EC50 [1] [nM] | EC50 [2] [nM] |
| --- | --- | --- |
| CC(C)(C)c1nc(-c2cc(OCCN3CCCC3)c(C3CC3)cn2)no1 [Example 94, 5-tert-butyl-3-[5-cyclopropyl-4-(2-pyrrolidin-1-ylethoxy)pyridin-2-yl]-1,2,4-oxadiazole] | 60.2 | > 10000 |
| CC(C)(C)c1nc(-c2cc(OCCN3CCCCC3)c(C3CC3)cn2)no1 [Example 95, 5-tert-butyl-3-[5-cyclopropyl-4-(2-piperidin-1-ylethoxy)pyridin-2-yl]-1,2,4-oxadiazole] | 26.1 | > 10000 |
| CC(CN1CCCCC1)Oc1cc(-c2noc(C(C)(C)C)n2)ncc1C1CC1 (stereo not drawn) [Example 96, 5-tert-butyl-3-[5-cyclopropyl-4-(1-piperidin-1-ylpropan-2-yloxy)pyridin-2-yl]-1,2,4-oxadiazole] | 75.9 | 1010 |
| CN1CCCCC1COc1cc(-c2noc(C(C)(C)C)n2)ncc1C1CC1 (stereo not drawn) [Example 97, 5-tert-butyl-3-[5-cyclopropyl-4-[(1-methylpiperidin-2-yl)methoxy]pyridin-2-yl]-1,2,4-oxadiazole] | 19 | > 10000 |
| CC(C)(C)c1nnc(-c2cc(OC3CCOCC3)c(C3CC3)cn2)o1 [Example 98, 2-tert-butyl-5-[5-cyclopropyl-4-(oxan-4-yloxy)pyridin-2-yl]-1,3,4-oxadiazole] | 42 | > 10000 |
| CN1CCCC(Oc2cc(-c3noc(C(C)(C)C)n3)ncc2C2CC2)C1 (stereo not drawn) [Example 99, 5-tert-butyl-3-[5-cyclopropyl-4-(1-methylpiperidin-3-yl)oxypyridin-2-yl]-1,2,4-oxadiazole] | 317 | > 10000 |
| CCN1CCCC(Oc2cc(-c3noc(C(C)(C)C)n3)ncc2C2CC2)C1 (stereo not drawn) [Example 100, 5-tert-butyl-3-[5-cyclopropyl-4-(1-ethylpiperidin-3-yl)oxypyridin-2-yl]-1,2,4-oxadiazole] | 518 | > 10000 |
| CCN(CC)CC(C)Oc1cc(-c2noc(C(C)(C)C)n2)ncc1C1CC1 (stereo not drawn) [Example 101, 2-[2-(5-tert-butyl-1,2,4-oxadiazol-3-yl)-5-cyclopropylpyridin-4-yl]oxy-N,N-diethylpropan-1-amine] | 142 | > 10000 |
| CC(C)(C)c1nc(-c2cc(OCCN3CCOCC3)c(C3CC3)cn2)no1 [Example 103, 4-[2-[2-(5-tert-butyl-1,2,4-oxadiazol-3-yl)-5-cyclopropylpyridin-4-yl]oxyethyl]morpholine] | 28.9 | > 10000 |
| CC(C)(C)c1nc(-c2cc(OC3CCCNC3)c(C3CC3)cn2)no1 (stereo not drawn) [Example 104, 5-tert-butyl-3-(5-cyclopropyl-4-piperidin-3-yloxypyridin-2-yl)-1,2,4-oxadiazole] | 69.8 | > 10000 |
| CC(C)(C)c1nc(-c2cc(OCC3(F)COC3)c(C3CC3)cn2)no1 [Example 105, 5-tert-butyl-3-[5-cyclopropyl-4-[(3-fluorooxetan-3-yl)methoxy]pyridin-2-yl]-1,2,4-oxadiazole] | 29.1 | > 10000 |
| Cc1nc(COc2cc(-c3noc(C(C)(C)C)n3)ncc2C2CC2)c(C)o1 [Example 106, 5-tert-butyl-3-[5-cyclopropyl-4-[(2,5-dimethyl-1,3-oxazol-4-yl)methoxy]pyridin-2-yl]-1,2,4-oxadiazole] | 128 | > 10000 |
| Cc1cc(COc2cc(-c3noc(C(C)(C)C)n3)ncc2C2CC2)no1 [Example 107, 5-tert-butyl-3-[5-cyclopropyl-4-[(5-methyl-1,2-oxazol-3-yl)methoxy]pyridin-2-yl]-1,2,4-oxadiazole] | 95.8 | > 10000 |
| CC(C)(C)c1nc(-c2cc(Oc3cccc(S(C)(=O)=O)c3)c(C3CC3)cn2)no1 [Example 108, 5-tert-butyl-3-[5-cyclopropyl-4-(3-methylsulfonylphenoxy)pyridin-2-yl]-1,2,4-oxadiazole] | 69.8 | > 10000 |
| CC(C)(C)c1nc(-c2cc(OC3CCOCC3)c(C3(F)COC3)cn2)no1 [Example 109, 5-tert-butyl-3-[5-(3-fluorooxetan-3-yl)-4-(oxan-4-yloxy)pyridin-2-yl]-1,2,4-oxadiazole] | 162 | > 10000 |
| CC(C)(C)c1nc(-c2cc(Oc3ccc(F)cc3)c(C3(F)COC3)cn2)no1 [Example 110, 5-tert-butyl-3-[5-(3-fluorooxetan-3-yl)-4-(4-fluorophenoxy)pyridin-2-yl]-1,2,4-oxadiazole] | 103 | > 10000 |
| Cc1nc(C2(C)COC(c3cc(OCC(F)(F)F)c(C4CC4)cn3)=N2)no1 (stereo not drawn) [Example 111, 3-[2-[5-cyclopropyl-4-(2,2,2-trifluoroethoxy)pyridin-2-yl]-4-methyl-5H-1,3-oxazol-4-yl]-5-methyl-1,2,4-oxadiazole] | 57.6 | > 10000 |
| CC(C)(C)c1nc(-c2cc(OC3CCOCC3)c(C3CC3)c(Cl)n2)no1 [Example 114, 5-tert-butyl-3-[6-chloro-5-cyclopropyl-4-(oxan-4-yloxy)pyridin-2-yl]-1,2,4-oxadiazole] | 3.7 | 455 |
